The values below come from patent US20240376096A1, “SMALL MOLECULE CYCLIN DEPENDENT KINASE 4/6 (CDK4/6) AND IKZF2 (HELIOS) DEGRADERS AND METHODS OF USE THEREOF” (DANA-FARBER CANCER INSTITUTE, INC., priority 2021, published 2024).

Common to all, as to type: cell-based
Test [1] has as its system Jurkat cells. Put plainly: IL-2 levels by ELISA after TCR stimulation. The settings on record: Jurkat cells pre-treated with 1 μM for 24 h, then TCR-stimulated for 18 h. As for the experimental part: FIG. 4 is a graph of [IL2] for the indicated compounds in Jurkat cells upon TCR-stimulation with a-CD3/CD28.
Quantification of IL-2 levels by ELISA from Jurkat cells pre-treated with 1 μM of the indicated compounds for 24 h and then TCR-stimulated for 18 h. Results are shown in FIG. 4 as mean±SD (untreated, n=3; other conditions, n=4) (*p<0.05). […] The structure of 19 (N-(4-(4-(6-((6-acetyl-8-cyclopentyl-5-methyl-7-oxo-7,8-dihydropyrido[2,3-d]pyrimidin-2-yl)amino)pyridin-3-yl)piperazin-1-yl)butyl)-2-((2-(2,6-dioxopiperidin-3-yl)-1,3-dioxoisoindolin-4-yl)oxy)acetamide) is shown here: […]
Background: ELISA stands for enzyme-linked immunosorbent assay.

Test [2] has as its target T1, Helios (Homo sapiens, UniProt Q96SW2+Q9UKS7).
T1 construct: immunoblots from Jurkat cells treated with the indicated compounds; endogenous in cells; host or cells: Jurkat cells
Put plainly: Immunoblot of Helios levels in Jurkat cells. The conditions noted are these: 1 μM; for degradation of Helios (immunoblot): 4 h; for protein abundance of Helios (immunoblot): 16 h. As for the experimental part:
(§1) FIG. 1A is a set of immunoblots of Jurkat cells treated with 1 μM of the indicated (DKY709 and Ia-1 to Ia-8) compounds for 4 hours, showing the levels of Ikaros, Helios, CDK4, CDK6, and tubulin for each compound.
(§2) FIG. 1B is a set of immunoblots of Jurkat cells treated with the Helios degrader DKY709, the triple degrader Ia-8, and the paired negative control compound 17 for 4 hours, showing the levels of Ikaros, Helios, CDK4, CDK6, and tubulin for each compound at 0.1 μM and 1 μM.
(§3) FIG. 2 is a set of immunoblots of Jurkat cells treated with the indicated compounds (palbociclib, DKY709, Ia-8, and 17) at 0.1 μM and 1 μM for 16 hours.
(§4) The structure of DKY709 (3-(5-(1-benzylpiperidin-4-yl)-1-oxoisoindolin-2-yl)piperidine-2,6-dione) is shown here: […]
A general note: In western blotting, separated proteins are transferred to a membrane and probed.

Test [3] has as its target T2, CDK4 (Homo sapiens, UniProt P11802).
T2 construct: immunoblots from Jurkat cells treated with the indicated compounds; endogenous in cells; host or cells: Jurkat cells
Put plainly: Immunoblot of CDK4 levels in Jurkat cells. The settings on record: 1 μM; for degradation of CDK4 (immunoblot): 4 h; for protein abundance of CDK4 (immunoblot): 16 h. As for the experimental part: as §1, §2, §3, §4

In test [4] the target is T3, CDK6 (Homo sapiens, UniProt Q00534).
T3 construct: immunoblots from Jurkat cells treated with the indicated compounds; endogenous in cells; host or cells: Jurkat cells
T3 sequence (Q00534 whole entry): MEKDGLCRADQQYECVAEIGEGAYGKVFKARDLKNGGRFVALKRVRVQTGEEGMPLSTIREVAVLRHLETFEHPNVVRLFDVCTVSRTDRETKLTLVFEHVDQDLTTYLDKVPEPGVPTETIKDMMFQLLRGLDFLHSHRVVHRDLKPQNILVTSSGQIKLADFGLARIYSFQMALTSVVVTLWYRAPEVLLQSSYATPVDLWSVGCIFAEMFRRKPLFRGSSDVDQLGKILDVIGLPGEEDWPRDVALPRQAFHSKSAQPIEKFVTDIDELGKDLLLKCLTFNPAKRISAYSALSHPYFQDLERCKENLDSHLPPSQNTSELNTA
Kind of test: Immunoblot of CDK6 levels in Jurkat cells. The settings on record: 1 μM; for degradation of CDK6 (immunoblot): 4 h; for protein abundance of CDK6 (immunoblot): 16 h. As for the experimental part:
as §1, §2, §3, §4

Test [5] has as its system phosphorylated Rb. Put plainly: Immunoblot of phosphorylated Rb in Jurkat cells. The settings on record: 1 μM, 16 h. As for the experimental part:
as §3

Test [6] deals with Jurkat cells. Put plainly: Propidium iodide staining for DNA content (G1 arrest). The conditions noted are these: 100 nM, 24 h. As for the experimental part: FIG. 3A is a set of histograms and the quantification of the DNA content using propidium iodide (PI) staining after treatment of Jurkat cells with the indicated compounds (palbociclib, DKY709, 18, Ia-6, 16, Ia-8, and 17) at 100 nM for 24 h.
The structure of 18 (N-(4-(4-(6-((6-acetyl-8-cyclopentyl-5-methyl-7-oxo-7,8-dihydropyrido[2,3-d]pyrimidin-2-yl)amino)pyridin-3-yl)piperazin-1-yl)butyl)-2-((2-(1-methyl-2,6-dioxopiperidin-3-yl)-1,3-dioxoisoindolin-4-yl)amino)acetamide) is shown here: […]

The test system of test [7] is Jurkat cells. Put plainly: Cell proliferation quantified by CellTiter-Glo. The settings on record: Homo sapiens, 72 h, dose curve, 3 d, read-out: anti-proliferative activity. An excerpt:
FIG. 3B is a graph of normalized luminescence versus concentration (log[inhibitor], M) of the indicated compounds (palbociclib, Ia-8, and 17) assessed by CellTiterGlo after treatment of Jurkat cells for 3 d.
For orientation: In ATP-based viability assays light output follows the ATP content of the culture.

Test [8] deals with T4, Ikaros (Homo sapiens, UniProt Q13422).
T4 construct: endogenous in cells; host or cells: Jurkat cells
T4 sequence (Q96SW2 whole entry partner): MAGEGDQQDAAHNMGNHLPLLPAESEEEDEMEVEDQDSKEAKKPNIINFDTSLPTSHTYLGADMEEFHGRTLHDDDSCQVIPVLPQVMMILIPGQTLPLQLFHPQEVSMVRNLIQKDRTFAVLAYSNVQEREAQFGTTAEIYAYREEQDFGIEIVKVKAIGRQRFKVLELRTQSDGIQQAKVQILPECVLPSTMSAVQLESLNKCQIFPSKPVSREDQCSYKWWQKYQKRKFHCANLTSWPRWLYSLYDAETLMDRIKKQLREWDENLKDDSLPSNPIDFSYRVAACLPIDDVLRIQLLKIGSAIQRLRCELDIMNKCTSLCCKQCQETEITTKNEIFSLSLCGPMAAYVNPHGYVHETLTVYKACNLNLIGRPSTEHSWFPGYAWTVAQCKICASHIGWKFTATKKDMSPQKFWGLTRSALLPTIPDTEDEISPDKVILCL
T4 sequence (Q16531 whole entry partner): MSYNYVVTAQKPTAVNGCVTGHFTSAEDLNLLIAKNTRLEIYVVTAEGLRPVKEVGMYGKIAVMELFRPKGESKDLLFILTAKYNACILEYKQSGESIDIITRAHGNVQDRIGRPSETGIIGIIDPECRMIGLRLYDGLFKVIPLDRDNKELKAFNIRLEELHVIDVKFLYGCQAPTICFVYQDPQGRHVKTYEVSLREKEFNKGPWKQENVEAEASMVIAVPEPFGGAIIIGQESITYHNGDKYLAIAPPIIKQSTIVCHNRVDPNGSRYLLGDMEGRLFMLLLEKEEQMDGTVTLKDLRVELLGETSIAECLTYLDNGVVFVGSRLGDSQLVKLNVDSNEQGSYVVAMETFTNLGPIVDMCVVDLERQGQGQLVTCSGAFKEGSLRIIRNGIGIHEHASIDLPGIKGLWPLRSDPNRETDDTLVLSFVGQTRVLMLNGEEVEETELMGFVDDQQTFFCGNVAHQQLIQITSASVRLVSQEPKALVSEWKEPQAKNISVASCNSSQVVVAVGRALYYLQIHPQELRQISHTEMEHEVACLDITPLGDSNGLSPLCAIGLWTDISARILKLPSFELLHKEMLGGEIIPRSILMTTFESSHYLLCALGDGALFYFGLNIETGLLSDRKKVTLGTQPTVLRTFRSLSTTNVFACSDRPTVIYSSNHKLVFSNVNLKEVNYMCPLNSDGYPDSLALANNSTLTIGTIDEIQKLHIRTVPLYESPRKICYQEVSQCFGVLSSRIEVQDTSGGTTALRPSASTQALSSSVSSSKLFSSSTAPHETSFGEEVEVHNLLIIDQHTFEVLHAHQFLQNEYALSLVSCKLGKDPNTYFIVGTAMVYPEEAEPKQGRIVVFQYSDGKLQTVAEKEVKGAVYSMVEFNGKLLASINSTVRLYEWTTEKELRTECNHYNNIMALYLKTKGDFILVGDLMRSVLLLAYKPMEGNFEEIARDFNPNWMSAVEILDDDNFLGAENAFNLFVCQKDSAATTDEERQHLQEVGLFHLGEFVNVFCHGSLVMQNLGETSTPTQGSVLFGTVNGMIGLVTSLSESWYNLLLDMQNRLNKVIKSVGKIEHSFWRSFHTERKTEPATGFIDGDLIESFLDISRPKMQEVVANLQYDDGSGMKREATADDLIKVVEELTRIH
T4 sequence (Q13422 whole entry): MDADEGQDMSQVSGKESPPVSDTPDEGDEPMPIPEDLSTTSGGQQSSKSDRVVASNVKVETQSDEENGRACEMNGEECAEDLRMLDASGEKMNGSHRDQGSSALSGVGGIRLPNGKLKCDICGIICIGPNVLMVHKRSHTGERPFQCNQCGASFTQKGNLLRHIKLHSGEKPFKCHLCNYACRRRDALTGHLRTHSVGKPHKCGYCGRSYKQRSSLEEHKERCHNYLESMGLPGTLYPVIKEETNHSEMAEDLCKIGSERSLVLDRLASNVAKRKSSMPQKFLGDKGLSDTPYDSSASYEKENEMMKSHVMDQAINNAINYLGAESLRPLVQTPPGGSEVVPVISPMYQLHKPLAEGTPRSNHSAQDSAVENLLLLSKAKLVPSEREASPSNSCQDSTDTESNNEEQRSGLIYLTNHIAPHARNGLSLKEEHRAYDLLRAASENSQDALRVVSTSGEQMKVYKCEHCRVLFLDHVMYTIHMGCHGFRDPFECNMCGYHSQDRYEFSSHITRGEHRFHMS
Kind of test: Immunoblot of Ikaros levels in Jurkat cells. The conditions noted are these: 1 μM, 4 h. As for the experimental part: as §1, §2, §4

Each structure is given as a SMILES string.

T2 sequence (P11802 whole entry): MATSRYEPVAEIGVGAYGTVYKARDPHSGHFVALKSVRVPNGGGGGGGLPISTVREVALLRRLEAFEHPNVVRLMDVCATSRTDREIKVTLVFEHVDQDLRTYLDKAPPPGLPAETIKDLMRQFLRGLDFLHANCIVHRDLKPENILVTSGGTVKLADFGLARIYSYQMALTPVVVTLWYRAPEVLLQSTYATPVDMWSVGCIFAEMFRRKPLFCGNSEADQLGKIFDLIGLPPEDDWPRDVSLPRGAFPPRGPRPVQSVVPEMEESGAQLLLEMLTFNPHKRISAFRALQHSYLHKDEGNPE
T1 sequence (Q9UKS7 whole entry): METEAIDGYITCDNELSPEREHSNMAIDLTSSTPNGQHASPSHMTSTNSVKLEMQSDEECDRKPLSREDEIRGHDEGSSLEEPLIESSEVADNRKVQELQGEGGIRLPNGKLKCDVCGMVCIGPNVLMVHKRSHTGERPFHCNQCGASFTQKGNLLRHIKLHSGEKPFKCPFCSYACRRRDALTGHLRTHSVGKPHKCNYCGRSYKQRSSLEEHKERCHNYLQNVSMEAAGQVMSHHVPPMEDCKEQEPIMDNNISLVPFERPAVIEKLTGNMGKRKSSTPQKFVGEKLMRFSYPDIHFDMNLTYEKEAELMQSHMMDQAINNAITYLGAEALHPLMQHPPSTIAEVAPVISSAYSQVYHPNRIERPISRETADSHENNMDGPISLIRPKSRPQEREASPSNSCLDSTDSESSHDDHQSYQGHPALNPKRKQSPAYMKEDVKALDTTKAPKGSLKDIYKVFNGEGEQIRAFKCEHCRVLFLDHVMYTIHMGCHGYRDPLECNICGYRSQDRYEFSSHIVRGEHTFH
T1 sequence (Q96SW2 whole entry): as the sequence (Q96SW2 whole entry partner) above
T1 sequence (Q16531 whole entry partner): as the sequence (Q16531 whole entry partner) above

Regarding `Nc1cccc2c1CN(C1CCC(=O)NC1=O)C2=O` (centres unmarked) [Lenalidomide, reference compound], the IL-2 secretion entry in test [1] is recorded as “elevated IL-2 secretion, although it did not reach statistical significance”.

Take `CC(=O)c1c(C)c2cnc(Nc3ccc(N4CCN(CCOc5ccc(CN6CCC(c7ccc8c(c7)CN(C7CCC(=O)N(C)C7=O)C8=O)CC6)cc5)CC4)cn3)nc2n(C2CCCC2)c1=O` (centres unmarked) [compound 17, 3-(5-(1-(4-(2-(4-(6-((6-acetyl-8-cyclopentyl-5-methyl-7-oxo-7,8-dihydropyrido[2,3-d]pyrimidin-2-yl)amino)pyridin-3-yl)piperazin-1-yl)ethoxy)benzyl)piperidin-4-yl)-1-oxoisoindolin-2-yl)-1-methylpiperidine-2,6-dione]: in test [2], the “degradation of Helios (immunoblot)” value was “had no degradation activity” and the “protein abundance of Helios (immunoblot)” value is reported as “had minimal effects”. In test [3], the “degradation of CDK4 (immunoblot)” value is on record as “had no degradation activity” and the “protein abundance of CDK4 (immunoblot)” value is given as “had minimal effects”. In test [4], the “degradation of CDK6 (immunoblot)” value was “had no degradation activity” and the “protein abundance of CDK6 (immunoblot)” value is “had minimal effects”. Further, in test [5], the “levels of phosphorylated Rb (immunoblot)” value is recorded as “had minimal effects”. The “induction of G1 arrest” value in test [6] is recorded as “did not”. The IC50 in test [7] is 244 nM. For the same molecule, in test [1], the IL-2 secretion result is reported as “had activity similar to that of palbociclib”.

As for `CC(=O)c1c(C)c2cnc(Nc3ccc(N4CCN(CCOc5ccc(CN6CCC(c7ccc8c(c7)CN(C7CCC(=O)NC7=O)C8=O)CC6)cc5)CC4)cn3)nc2n(C2CCCC2)c1=O` (centres unmarked) [Ia-8, 3-(5-(1-(4-(2-(4-(6-((6-acetyl-8-cyclopentyl-5-methyl-7-oxo-7,8-dihydropyrido[2,3-d]pyrimidin-2-yl)amino)pyridin-3-yl)piperazin-1-yl)ethoxy)benzyl)piperidin-4-yl)-1-oxoisoindolin-2-yl)piperidine-2,6-dione], in test [2], the “degradation of Helios (immunoblot)” value was “induced the degradation of CDK4, CDK6, and Helios”; the “protein abundance of Helios (immunoblot)” value is “induced the triple degradation of Helios, CDK4, and CDK6”. Besides, in test [3], the “degradation of CDK4 (immunoblot)” value is “induced the degradation of CDK4, CDK6, and Helios”; the “protein abundance of CDK4 (immunoblot)” value was “induced the triple degradation of Helios, CDK4, and CDK6”. Also, in test [4], the “degradation of CDK6 (immunoblot)” value is “induced the degradation of CDK4, CDK6, and Helios”; the “protein abundance of CDK6 (immunoblot)” value is “induced the triple degradation of Helios, CDK4, and CDK6”. Further, the “degradation of Ikaros (immunoblot)” value in test [8] is “but not Ikaros”. Moreover, the “levels of phosphorylated Rb (immunoblot)” value in test [5] was “reduced the levels of phosphorylated Rb”. Moreover, the “induction of G1 arrest” value in test [6] was “induced G1 arrest”. Further, in test [7], the IC50 turned out to be 166 nM. Moreover, the IL-2 secretion entry in test [1] is reported as “induced elevated levels of IL2 that were comparable to that of 18”.

Turning to `O=C1CCC(N2Cc3cc(C4CCN(Cc5ccccc5)CC4)ccc3C2=O)C(=O)N1` (centres unmarked) [DKY709, 3-(5-(1-benzylpiperidin-4-yl)-1-oxoisoindolin-2-yl)piperidine-2,6-dione, reference compound], in test [2], the “degradation of Helios (immunoblot)” value was “only induced degradation of Helios” and the “protein abundance of Helios (immunoblot)” value is on record as “induced Helios degradation”. Also, in test [3], the “degradation of CDK4 (immunoblot)” value was “did not affect CDK4 or CDK6 abundance”. Also, the “degradation of CDK6 (immunoblot)” value in test [4] is listed as “did not affect CDK4 or CDK6 abundance”. For the same molecule, the “levels of phosphorylated Rb (immunoblot)” value in test [5] was “without affecting the levels of phosphorylated Rb”. For the same molecule, the “induction of G1 arrest” value in test [6] is given as “but not DKY709, induced G1 arrest”. Moreover, in test [1], the IL-2 secretion result is reported as “elevated IL-2 secretion, although it did not reach statistical significance”.
